According to ChEMBL document CHEMBL4673220, “Synthesis of new coumarin tethered isoxazolines as potential anticancer agents” (Bioorg Med Chem Lett, 2018):
Active and inactive are the calls of the source. The rule behind the calls is not given here.

Tests used:
UACC-903 [1] = assay: Antiproliferative activity against human UACC-903 cells assessed as reduction in cell viability at 0.5 to 200 uM measured after 72 hrs by MTS assay; type: functional, cell-based; conditions: dose 0.5-200 µM
[2] = Cytotoxicity against human FF2441 cells assessed as reduction in cell viability at 0.2 to 100 uM measured after 72 hrs by MTS assay; type: cell-based; conditions: ff2441, 72 h, dose 0.2-100 µM
UACC-903 [3] = assay: Antiproliferative activity against human UACC-903 cells assessed as reduction in cell viability at 0.5 to 200 uM by MTS assay; type: functional, cell-based; conditions: dose 0.5-200 µM, TDE = time-dependent effect
UACC-903 [4] = assay: Antiproliferative activity against human UACC-903 cells assessed as reduction in cell viability measured after 72 hrs by MTS assay; type: functional, cell-based; conditions: for IC50: UACC-903, 72 h
Chorioallantoic membrane [5] = assay: Antiangiogenic activity in chicken fertilized egg chorioallantoic membrane assessed as inhibition of secretion of VEGF-like factors; type: functional; conditions: Gallus gallus, Embryo
Chorioallantoic membrane [6] = assay: Antiangiogenic activity in chicken fertilized egg chorioallantoic membrane assessed as inhibition of expression of VEGF-like factors; type: functional; conditions: Gallus gallus, Embryo
Chorioallantoic membrane [7] = assay: Antiangiogenic activity in chicken fertilized egg chorioallantoic membrane assessed as inhibition of VEGF165-induced vascularization incubated for 2 days by digital camera photography analysis; type: functional; conditions: Gallus gallus, Embryo, time 2.0 day
Ehrlich [8] = assay: Antitumor activity against mouse EAT cells implanted in ip dosed Swiss albino mouse assessed as suppression of peritoneal angiogenesis at […] administered on day 7, 9 and 11 post implantation and measured on day 12 by Hematoxylin and eosin staining based assay; type: functional, organism-based; conditions: time 3.0 day
Ehrlich [9] = assay: Antitumor activity against mouse EAT cells implanted in ip dosed Swiss albino mouse assessed as induction of apoptosis causing apoptotic body formation administered on day 7, 9 and 11 post implantation and measured on day 12 by Giemsa staining based light microscopy; type: functional, organism-based; conditions: dose 100.0 mg/kg, time 3.0 day
Ehrlich [10] = assay: Antitumor activity against mouse EAT cells implanted in ip dosed Swiss albino mouse assessed as induction of apoptosis causing membrane blebbing administered on day 7, 9 and 11 post implantation and measured on day 12 by Giemsa staining based light microscopy; type: functional, organism-based; conditions: dose 100.0 mg/kg, time 3.0 day
Ehrlich [11] = assay: Antitumor activity against mouse EAT cells implanted in ip dosed Swiss albino mouse assessed as induction of apoptosis causing shrinkage of cells administered on day 7, 9 and 11 post implantation and measured on day 12 by Giemsa staining based light microscopy; type: functional, organism-based; conditions: dose 100.0 mg/kg, time 3.0 day
Ehrlich [12] = assay: Antitumor activity against mouse EAT cells implanted in ip dosed Swiss albino mouse assessed as induction of apoptosis causing plasma membrane degradation administered on day 7, 9 and 11 post implantation and measured on day 12 by Giemsa staining based light microscopy; type: functional, organism-based; conditions: dose 100.0 mg/kg, time 3.0 day
Ehrlich [13] = assay: Antitumor activity against mouse EAT cells implanted in ip dosed Swiss albino mouse assessed as increase in mouse survival at 100 mg/kg, ip administered on day 7, 9 and 11 post implantation and measured after 35 days relative to control; type: functional; conditions: time 35 day
Ehrlich [14] = assay: Antitumor activity against mouse EAT cells implanted in ip dosed Swiss albino mouse assessed as decrease in ascitic cell viability administered on day 7, 9 and 11 post implantation and measured on day 12 by tryphan blue assay; type: functional, organism-based; conditions: dose 100.0 mg/kg, time 3.0 day
Ehrlich [15] = assay: Antitumor activity against mouse EAT cells implanted in ip dosed Swiss albino mouse assessed as decrease in ascitic fluid administered on day 7, 9 and 11 post implantation and measured on day 12; type: functional, organism-based; conditions: dose 100.0 mg/kg, time 3.0 day
Ehrlich [16] = assay: Antitumor activity against mouse EAT cells implanted in ip dosed Swiss albino mouse assessed as tumor regression administered on day 7, 9 and 11 post implantation and measured on day 12; type: functional, organism-based; conditions: time 3.0 day
[17] = Toxicity in Swiss albino mouse implanted with mouse EAT cells assessed as decrease in body weight at 100 mg/kg, ip administered on day 7, 9 and 11 post implantation and measured on day 12; type: organism-based; conditions: in vivo, 72 h, time 3 day
Ehrlich [18] = assay: Antitumor activity against mouse EAT cells implanted in Swiss albino mouse assessed as tumor suppression at 100 mg/kg, ip administered on day 7, 9 and 11 post implantation and measured on day 12 relative to control; type: functional; conditions: 72 h, time 3 day

SMILES | Activity (UACC-903 [1]) | Activity [2] | Activity (UACC-903 [3]) | Activity (UACC-903 [4]) | IC50 (UACC-903 [4]) [µM] | further results
Cc1cc(=O)oc2cc(OCC3CC(c4ccc(F)cc4)=NO3)ccc12 (configuration not stated) | inactive | Non-Toxic |  |  |  | 
COc1cccc(C2=NOC(COc3ccc4c(C)cc(=O)oc4c3)C2)c1 (configuration not stated) | inactive | Non-Toxic |  |  |  | 
Cc1cc(=O)oc2cc(OCC3CC(c4c(F)cccc4Cl)=NO3)ccc12 (configuration not stated) |  |  | Tde | Dose-dependent effect | 4.5 | 
COc1cc(C2=NOC(COc3ccc4c(C)cc(=O)oc4c3)C2)cc(OC)c1OC (configuration not stated) | inactive | Non-Toxic |  |  |  | 
COc1ccc(C2=NOC(COc3ccc4c(C)cc(=O)oc4c3)C2)cc1 (configuration not stated) |  |  | Tde | Dose-dependent effect | 8.8 | 
Cc1cc(=O)oc2cc(OCC3CC(c4cccc(F)c4)=NO3)ccc12 (configuration not stated) | inactive | Non-Toxic |  |  |  | 
Cc1cc(=O)oc2cc(OCC3CC(c4ccc5ccccc5c4)=NO3)ccc12 (configuration not stated) | inactive | Non-Toxic |  |  |  | 
Cc1cc(=O)oc2cc(OCC3CC(c4ccccc4Cl)=NO3)ccc12 (configuration not stated) |  |  | Tde | Dose-dependent effect | 9.2 | 
Cc1cc(=O)oc2cc(OCC3CC(c4ccc(C(F)(F)F)cc4)=NO3)ccc12 (configuration not stated) | inactive | Non-Toxic |  |  |  | 
COc1ccc(C2=NOC(COc3ccc4c(C)cc(=O)oc4c3)C2)cc1OC (configuration not stated) |  |  | Tde | Dose-dependent effect | 10.5 | Activity (Chorioallantoic membrane [5]): Active; Activity (Chorioallantoic membrane [6]): Active; Activity (Chorioallantoic membrane [7]): Active; Activity (Ehrlich [8]): Active; Activity (Ehrlich [9]): Active; Activity (Ehrlich [10]): Active; Activity (Ehrlich [11]): Active; Activity (Ehrlich [12]): Active; fold change (FC) (Ehrlich [13]): 2; Activity (Ehrlich [14]): Active; Activity (Ehrlich [15]): Active; Activity (Ehrlich [16]): Dose-dependent effect; Activity [17]: Toxic; inhibition in vivo at 100 mg/kg (Ehrlich [18]): 85%
Cc1cc(=O)oc2cc(OCC3CC(c4ccc(Br)cc4)=NO3)ccc12 (configuration not stated) | inactive | Non-Toxic |  |  |  | 
Cc1cc(=O)oc2cc(OCC3CC(c4ccc(Cl)cc4)=NO3)ccc12 (configuration not stated) | inactive | Non-Toxic |  |  |  | 
